Source: ChEMBL document CHEMBL1201862, “PubChem BioAssay data set” (2004)
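Protocol summary: plate cells (96-well), add compound at 5 concentrations, incubate 48 h, interpolate endpoints linearly. Abbreviation: GI50, concentration required for 50% inhibition of growth.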 Active and inactive are the calls of the source. Cut-off read from the data, not from the text of the source: active = GI50 up to about 1.1 µM and inactive = higher.

Legend:
Experiment in all cases: growth of human tumour cells (NCI), 48 h
[1] = test system: HOP-62
[2] = test system: DLD-1
[3] = test system: 786-0
[4] = test system: OVCAR-4
[5] = test system: K562
[6] = test system: SN12C
[7] = test system: PC-3
[8] = test system: UACC-62
[9] = test system: OVCAR-3
[10] = test system: RPMI-8226
[11] = test system: MDA-MB-231
[12] = test system: SNB-78
[13] = test system: MDA-N
[14] = test system: HCC 2998
[15] = test system: EKVX
[16] = test system: SK-OV-3
[17] = test system: SK-MEL-28
[18] = test system: SNB-75
[19] = test system: RXF 393
[20] = test system: OVCAR-8
[21] = test system: SK-MEL-2
[22] = test system: LXFL 529
[23] = test system: SK-MEL-5
[24] = test system: IGROV-1
[25] = test system: TK-10
[26] = test system: HT-29
[27] = test system: SF-539
[28] = test system: SF-295
[29] = test system: SR
[30] = test system: LOX IMVI
[31] = test system: M14
[32] = test system: DMS-273
[33] = test system: NCI-H460
[34] = test system: CCRF-CEM
[35] = test system: NCI-H23
[36] = test system: Malme-3M
[37] = test system: NCI-H226
[38] = test system: CAKI-1
[39] = test system: MOLT-4
[40] = test system: U-251
[41] = test system: A498
[42] = test system: UO-31
[43] = test system: UACC-257
[44] = test system: ACHN
[45] = test system: MDA-MB-435
[46] = test system: HCT-116
[47] = test system: KM-20L2
[48] = test system: SW-620
[49] = test system: A549
[50] = test system: COLO 205
[51] = test system: HCT-15
[52] = test system: SF-268
[53] = test system: BT-549
[54] = test system: HOP-18
[55] = test system: OVCAR-5
[56] = test system: HL-60
[57] = test system: DMS-114
[58] = test system: KM12
[59] = test system: NCI-H522
[60] = test system: XF498
[61] = test system: SNB-19
[62] = test system: HOP-92
[63] = test system: M19-MEL

With `C=C(CC(NC(=O)c1ccc(C(CC)Cc2cnc3nc(N)nc(N)c3n2)cc1)C(=O)O)C(=O)O` (stereo not drawn) the GI50 [1] was 0.03 µM (active), the GI50 [2] was 0.000574 µM (active) and the GI50 [3] was 0.00174 µM (active). The GI50 [4] was 0.246 µM (active), the GI50 [5] was 0.00185 µM (active) and the GI50 [6] was 0.0244 µM (active). For the same molecule, the GI50 [7] was 52.7 nM (active), the GI50 [8] was 0.163 µM (active) and the GI50 [9] was 190 nM (active). For the same molecule, the GI50 [10] was 0.029 µM (active), the GI50 [11] was 73.6 nM (active) and the GI50 [12] was 27.7 µM (inactive). The GI50 [13] was 46.2 nM (active), the GI50 [14] was 0.239 µM (active) and the GI50 [15] was 52.7 µM (inactive). For the same molecule, the GI50 [16] was 0.214 µM (active), the GI50 [17] was 0.209 µM (active) and the GI50 [18] was 0.154 µM (active). The GI50 [19] was 0.237 µM (active), the GI50 [20] was 0.0217 µM (active) and the GI50 [21] was 0.933 µM (active). For the same molecule, the GI50 [22] was 0.00239 µM (active), the GI50 [23] was 0.0857 µM (active) and the GI50 [24] was 0.0274 µM (active). For the same molecule, the GI50 [25] was 0.0719 µM (active), the GI50 [26] was 0.0356 µM (active) and the GI50 [27] was 0.00319 µM (active). The GI50 [28] was 0.00113 µM (active), the GI50 [29] was 3.16 nM (active) and the GI50 [30] was 0.00436 µM (active). The GI50 [31] was 0.02 µM (active), the GI50 [32] was 0.000644 µM (active) and the GI50 [33] was 0.00589 µM (active). For the same molecule, the GI50 [34] was 0.01 µM (active), the GI50 [35] was 0.244 µM (active) and the GI50 [36] was 0.35 µM (active). For the same molecule, the GI50 [37] was 87.5 nM (active), the GI50 [38] was 0.169 µM (active) and the GI50 [39] was 0.0136 µM (active). For the same molecule, the GI50 [40] was 0.152 µM (active), the GI50 [41] was 0.632 µM (active) and the GI50 [42] was 0.114 µM (active). For the same molecule, the GI50 [43] was 839 nM (active), the GI50 [44] was 0.0184 µM (active) and the GI50 [45] was 36.9 nM (active). The GI50 [46] was 2.86 nM (active), the GI50 [47] was 0.01 µM (active) and the GI50 [48] was 0.0673 µM (active). For the same molecule, the GI50 [49] was 0.00567 µM (active), the GI50 [50] was 0.0796 µM (active) and the GI50 [51] was 0.00531 µM. The GI50 [52] was 0.0731 µM (active), the GI50 [53] was 68.7 nM (active) and the GI50 [54] was 42.9 nM (active). For the same molecule, the GI50 [55] was 0.653 µM (active) and the GI50 [56] was 0.00376 µM (active).
In the case of `CCCCCc1cc(OC(=O)c2c(O)cc(OC)cc2CCCCC)cc(O)c1C(=O)O`, the GI50 [1] is reported as 16.4 µM (inactive), the GI50 [2] is reported as 13 µM (inactive) and the GI50 [3] is reported as 16.4 µM (inactive). The GI50 [4] was 20 µM (inactive), the GI50 [5] was 26.8 µM (inactive) and the GI50 [6] was 15.9 µM (inactive). The GI50 [8] was 14.5 µM (inactive), the GI50 [10] was 14.5 µM (inactive) and the GI50 [12] was 30.9 µM (inactive). For the same molecule, the GI50 [14] was 15.3 µM (inactive), the GI50 [15] was 19 µM (inactive) and the GI50 [16] was 16.7 µM (inactive). For the same molecule, the GI50 [17] was 17.1 µM (inactive), the GI50 [18] was 17.2 µM (inactive) and the GI50 [19] was 16 µM (inactive). The GI50 [20] was 18.2 µM (inactive), the GI50 [21] was 16.8 µM (inactive) and the GI50 [22] was 16.5 µM (inactive). For the same molecule, the GI50 [23] was 14.8 µM (inactive), the GI50 [24] was 16.6 µM (inactive) and the GI50 [25] was 18.6 µM (inactive). The GI50 [26] was 14.2 µM (inactive), the GI50 [27] was 16.8 µM (inactive) and the GI50 [28] was 16.8 µM (inactive). For the same molecule, the GI50 [30] was 17.7 µM (inactive), the GI50 [31] was 20.4 µM (inactive) and the GI50 [57] was 14.7 µM (inactive). For the same molecule, the GI50 [32] was 16.1 µM (inactive), the GI50 [33] was 15.9 µM (inactive) and the GI50 [34] was 20.7 µM (inactive). For the same molecule, the GI50 [35] was 12.4 µM (inactive), the GI50 [58] was 17.3 µM (inactive) and the GI50 [36] was 13 µM (inactive). The GI50 [38] was 19.1 µM (inactive), the GI50 [59] was 11.1 µM (inactive) and the GI50 [39] was 23.5 µM (inactive). The GI50 [40] was 15.2 µM (inactive), the GI50 [41] was 19.8 µM (inactive) and the GI50 [42] was 13.6 µM (inactive). The GI50 [44] was 17.3 µM (inactive), the GI50 [47] was 18.5 µM (inactive) and the GI50 [60] was 15.3 µM (inactive). For the same molecule, the GI50 [61] was 12.7 µM (inactive), the GI50 [48] was 18.3 µM (inactive) and the GI50 [62] was 16.4 µM (inactive). The GI50 [49] was 17.8 µM (inactive), the GI50 [50] was 18.2 µM (inactive) and the GI50 [51] was 12.6 µM. The GI50 [63] was 18.4 µM (inactive), the GI50 [52] was 13.2 µM (inactive) and the GI50 [55] was 19.1 µM (inactive). For the same molecule, the GI50 [56] was 24.9 µM (inactive).
